Source: ChEMBL document CHEMBL5131559, “Discovery and Preclinical Profiling of GSK3839919, a Potent HIV-1 Allosteric Integrase Inhibitor” (ACS Med Chem Lett, 2022)
pEC50: −log10 of the molar value.

Assays:
[1] = test system: Human immunodeficiency virus 1; experiment: Antiviral activity against recombinant HIV1 NLRep-Rluc harbouring polymorphic T124/T125 integrase infected in human MT-2 cells assessed as inhibition of virus growth in presence of fetal bovine serum by measuring luciferase activity after 4 days; format: functional, organism-based; conditions: Human immunodeficiency virus 1, NLRep, MT2, 96 h
[2] = Cytotoxicity against human MT2 cells; format: toxicity, cell-based
[3] = test system: Human immunodeficiency virus 1; experiment: Antiviral activity against recombinant HIV1 NLRep-Rluc harbouring polymorphic T124/T125 integrase infected in human MT-2 cells assessed as fold change in inhibition of virus growth in presence of fetal bovine serum by measuring luciferase activity after 4 days; format: functional; parameters: reference not given here; conditions: time 4 day
[4] = Metabolic stability in human liver microsomes assessed as parent compound disappearance by measuring half life at 0.5 uM in presence of NADPH by LC-MS/MS analysis; format: ADME, Microsome
[5] = test system: Human immunodeficiency virus 1; experiment: Antiviral activity against recombinant HIV1 NLRep-Rluc harbouring polymorphic N124/A125 integrase infected in human MT-2 cells assessed as inhibition of virus growth in presence of fetal bovine serum by measuring luciferase activity after 4 days; format: functional, organism-based; conditions: Human immunodeficiency virus 1, NLRep, MT2, 96 h
[6] = Clearance in Sprague-Dawley rat at 1 mg/kg, iv by LC-MS/MS analysis; format: ADME, organism-based; conditions: in vivo
[7] = AUC (0 to infinity) in Sprague-Dawley rat at 5 mg/kg, po by LC-MS/MS analysis; format: ADME, organism-based; parameters: time infinity, dose 5 mg/kg, route po; conditions: in vivo
[8] = Oral bioavailability in Sprague-Dawley rat at 5 mg/kg by LC-MS/MS analysis; format: ADME, organism-based; conditions: in vivo

With `Cc1nc(C)c([C@H](OC(C)(C)C)C(=O)O)c(N2CCC(C)(C)CC2)c1C1=CCN(CCCc2ccc(F)cc2)CC1` the pEC50 [1] was 8.12, the CC50 [2] was ≥ 22000 nM and the “fold change (FC)” value [3] was 4.8. It also gave a half-life at 0.5 µM [4] of 35.5 min.

In the case of `Cc1nc(C)c([C@H](OC(C)(C)C)C(=O)O)c(N2CCC(C)(C)CC2)c1-c1ccc2c(c1)CCN(Cc1cccc(F)c1F)C2`, the pEC50 [1] was 8.38, the pEC50 [5] was 7.87 and the CC50 [2] was ≥ 24000 nM. It also gave a clearance [6] of 8.1 mL/min/kg, an AUC(0-inf) [7] of 8.4 µM·h and a bioavailability [8] of 50%.

With `Cc1nc(C)c([C@H](OC(C)(C)C)C(=O)O)c(N2CCC(C)(C)CC2)c1-c1ccc2c(c1)CCN(Cc1ccc(F)cc1)C2` the pEC50 [1] was 8.23, the CC50 [2] was ≥ 22000 nM and the “fold change (FC)” value [3] was 3.7. The half-life at 0.5 µM [4] was 55 min.

With `Cc1nc(C)c([C@H](OC(C)(C)C)C(=O)O)c(N2CCC(C)(C)CC2)c1-c1ccc2c(c1)CCN(Cc1cccc(F)c1C)C2` the pEC50 [1] was 8.59, the pEC50 [5] was 8.09 and the CC50 [2] was ≥ 24000 nM. It also gave a clearance [6] of 4 mL/min/kg, an AUC(0-inf) [7] of 23.2 µM·h and a bioavailability [8] of 64%.

With `Cc1nc(C)c([C@H](OC(C)(C)C)C(=O)O)c(N2CCC(C)(C)CC2)c1-c1ccc2c(c1)CCN(c1ncnc3c1cnn3C)C2` the pEC50 [1] was 8.54, the pEC50 [5] was 8.15 and the CC50 [2] was ≥ 17000 nM. The clearance [6] was 3.6 mL/min/kg, the AUC(0-inf) [7] was 36.2 µM·h and the bioavailability [8] was 95%.

In the case of `Cc1nc(C)c([C@H](OC(C)(C)C)C(=O)O)c(N2CCC(C)(C)CC2)c1-c1ccc2c(c1)CCN(c1ncnc3c1oc1ccccc13)C2`, the pEC50 [1] was 8.82, the pEC50 [5] was 8.47 and the CC50 [2] was ≥ 17000 nM. It also gave a clearance [6] of 0.5 mL/min/kg, an AUC(0-inf) [7] of 226 µM·h and a bioavailability [8] of 72%.

For `Cc1nc(C)c([C@H](OC(C)(C)C)C(=O)O)c(N2CCC(C)(C)CC2)c1-c1ccc(OCCc2ccc(F)cc2)nc1`, the pEC50 [1] was 7.91, the CC50 [2] was ≥ 22000 nM and the “fold change (FC)” value [3] was 7.2. The half-life at 0.5 µM [4] was > 120 min.

For `Cc1cccc(F)c1CN1CCc2cc(-c3c(C)nc(C)c([C@H](OC(C)(C)C)C(=O)O)c3N3CCC(C)(C)CC3)ccc2C1`, the pEC50 [1] was 8.25, the pEC50 [5] was 8.28 and the CC50 [2] was ≥ 24000 nM. For the same compound, the clearance [6] was 5.8 mL/min/kg, the AUC(0-inf) [7] was 16 µM·h and the bioavailability [8] was 70%.

In the case of `Cc1nc(C)c([C@H](OC(C)(C)C)C(=O)O)c(N2CCC(C)(C)CC2)c1-c1ccc2c(c1)CCN(Cc1ccc(F)cc1F)C2`, the pEC50 [1] was 8.60, the pEC50 [5] was 8.27 and the CC50 [2] was ≥ 24000 nM. For the same compound, the clearance [6] was 20.1 mL/min/kg, the AUC(0-inf) [7] was 7.3 µM·h and the bioavailability [8] was > 100%.

With `Cc1nc(C)c([C@H](OC(C)(C)C)C(=O)O)c(N2CCC(C)(C)CC2)c1-c1cnc(OCCc2ccc(F)cc2)nc1` the pEC50 [1] was 8.05, the CC50 [2] was ≥ 22000 nM and the “fold change (FC)” value [3] was 4.8. For the same compound, the half-life at 0.5 µM [4] was 22 min.
